For this experiment, the system named is HIF-2α HIS TAG-PASB Domain. The experiment in a line: HIF-2α Scintillation Proximity Assay (SPA). It counts as binding. How it is done:
The percent inhibition was determined and IC50 values were calculated using the Dotmatics system based on the following equation: % inhibition=[(high control−sample)/(high control−low control)]×100.

pIC50: −log10 of the molar value.

Take `CS(=O)(=NC#N)c1ccc(Oc2cc(F)cc(F)c2)c2c1C(O)CC2` (stereo not shown) [Compound 189, N-((7-(3,5-Difluorophenoxy)-3-hydroxy-2,3-dihydro-1H-inden-4-yl)(methyl)(oxo)-λ^6-sulfanylidene)cyanamide]: the pIC50 was 5.49.
`O=S(=O)(c1ccc(Oc2cc(F)cc3[nH]ncc23)c2c1C(O)C(F)(F)C2)C(F)(F)F` (stereo not shown) [Compound 262, 2,2-Difluoro-4-((6-fluoro-1H-indazol-4-yl)oxy)-7-((trifluoromethyl)sulfonyl)-2,3-dihydro-1H-inden-1-ol] had a pIC50 of 5.31.
The result for `C[C@@H]1Cc2c(Oc3cc(F)cc(C#N)c3)ccc(S(C)(=O)=O)c2[C@@H]1O` [Compound 301, 3-fluoro-5-(((1R,2R)-1-hydroxy-2-methyl-7-(methylsulfonyl)-2,3-dihydro-1H-inden-4-yl)oxy)benzonitrile] reads 5.72; that for `N#Cc1cc(F)cc(Oc2ccc(S(=O)(=O)C(F)(F)F)c3c2CC(F)(F)[C@H]3NCCO)c1` [Compound 291, 3-[(1S)-2,2-difluoro-1-(2-hydroxyethylamino)-7-(trifluoromethylsulfonyl)indan-4-yl]oxy-5-fluoro-benzonitrile], 5.31.
The result for `C=CS(=O)(=O)c1ccc(Oc2cc(F)cc(Cl)c2)c(Br)c1` [Compound 130, 2-Bromo-1-(3-chloro-5-fluorophenoxy)-4-(vinylsulfonyl)benzene] reads 5.26.
The result for `O=S(=O)(c1ccc(Oc2cccc3[nH]ncc23)c2c1C(O)C(F)(F)C2)C(F)(F)F` (stereo not shown) [Compound 243] reads 6.60; that for `O=S(=O)(c1ccc(Oc2ccc(F)c(Cl)c2)c2c1C(O)CC2)C(F)(F)F` (stereo not shown) [Compound 218, 4-(3-Chloro-4-fluorophenoxy)-7-((trifluoromethyl)sulfonyl)-2,3-dihydro-1H-inden-1-ol], 6.09.
As for `CS(=O)(=O)c1ccc(Oc2cncc(Cl)c2)c2c1[C@H](O)C(F)(F)[C@H]2F` [Compound 332, (1S,3S)-4-((5-chloropyridin-3-yl)oxy)-2,2,3-trifluoro-7-(methylsulfonyl)-2,3-dihydro-1H-inden-1-ol], the pIC50 was 5.63.
The result for `CC(=NO)c1c(S(=O)(=O)C(F)(F)F)ccc(Oc2cc(F)cc(Cl)c2)c1Br` [Compound 106, 1-(2-Bromo-3-(3-chloro-5-fluorophenoxy)-6-((trifluoromethyl)sulfonyl)phenyl)ethan-1-one oxime] reads 6.00.
In the case of `O=S(=O)(c1ccc(Oc2ccc(F)cc2)c2c1[C@H](O)C(F)(F)C2)C(F)(F)F` [Example 230, (S)-2,2-Difluoro-4-(4-fluorophenoxy)-7-((trifluoromethyl)sulfonyl)-2,3-dihydro-1H-inden-1-ol], the pIC50 is 7.55.
For `CS(=O)(=O)c1ccc(Oc2cc(F)cc(C#N)c2)c2c1[C@H](O)C(F)(F)[C@H]2F` [Compound 293, 3-fluoro-5-[(1S,3S)-2,2,3-trifluoro-1-hydroxy-7-methylsulfonyl-indan-4-yl]oxy-benzonitrile] the value was 6.14; for `CN(C)Cc1c(S(=O)(=O)C(F)F)ccc(Oc2cc(F)cc(Cl)c2)c1C#N` [Compound 36, 6-(3-Chloro-5-fluorophenoxy)-3-((difluoromethyl)sulfonyl)-2-((dimethylamino)methyl)benzonitrile], 4.77; for `CS(=O)(=O)c1ccc(Oc2cncc(F)c2)c2c1[C@H](O)C(F)(F)[C@H]2F` [Compound 330, (1S,3S)-2,2,3-trifluoro-4-((5-fluoropyridin-3-yl)oxy)-7-(methylsulfonyl)-2,3-dihydro-1H-inden-1-ol], 5.68.
The result for `CS(=O)(=O)c1ccc(Oc2cncc(C#N)c2)c2c1[C@H](O)C(F)(F)[C@@H]2F` [Compound 342, 5-(((1S,3R)-2,2,3-trifluoro-1-hydroxy-7-(methylsulfonyl)-2,3-dihydro-1H-inden-4-yl)oxy)nicotinonitrile] reads 7.40; that for `O=S(=O)(c1ccc(Oc2cc(F)cc(F)c2)c2c1[C@H](O)CC2)C(F)F` [Compound 2, (R)-7-((Difluoromethyl)sulfonyl)-4-(3,5-difluorophenoxy)-2,3-dihydro-1H-inden-1-ol], above 8.30; that for `O=S(=O)(c1ccc(Oc2cc(F)cc(Cl)c2)c(CCO)c1)C(F)(F)F` [Compound 127, 2-[2-(3-Chloro-5-fluoro-phenoxy)-5-(trifluoromethylsulfonyl)phenyl]ethanol], 5.55.
The result for `Cc1c(S(C)(=O)=O)ccc(Oc2cc(F)cc(F)c2)c1C#N` [Compound 52, 6-(3,5-Difluorophenoxy)-2-methyl-3-(methylsulfonyl)benzonitrile] reads 7.34.
As to `O=S(=O)(c1ccc(Oc2cc(F)cc(Cl)c2)c(Br)c1Cl)C(F)(F)F` [Compound 179, 2-Bromo-3-chloro-1-(3-chloro-5-fluorophenoxy)-4-((trifluoromethyl)sulfonyl)benzene], the pIC50 is 7.64.
The result for `N#Cc1cncc(Oc2ccc(S(=O)(=O)CF)c3c2[C@H](F)C(F)(F)[C@H]3O)c1` [Compound 345, 5-(((1S,3S)-2,2,3-trifluoro-7-((fluoromethyl)sulfonyl)-1-hydroxy-2,3-dihydro-1H-inden-4-yl)oxy)nicotinonitrile] reads 5.66.
The compound `C[C@]1(F)Cc2c(Oc3cc(F)cc(C#N)c3)ccc(S(C)(=O)=O)c2[C@@H]1O` [Compound 298, 3-fluoro-5-(((1S,2S)-2-fluoro-1-hydroxy-2-methyl-7-(methylsulfonyl)-2,3-dihydro-1H-inden-4-yl)oxy)benzonitrile] showed a pIC50 of 4.79.
For `CS(=O)(=O)c1ccc(Oc2cc(F)cc(F)c2)c(C(F)F)c1C#N` [Compound 93, 2-(Difluoromethyl)-3-(3,5-difluorophenoxy)-6-(methylsulfonyl)benzonitrile] the value was 6.77.
The result for `O=S(=O)(c1ccc(Oc2c(F)ccc3[nH]ncc23)c2c1C(O)C(F)(F)C2)C(F)(F)F` (stereo not shown) [Compound 244, 2,2-Difluoro-4-((5-fluoro-1H-indazol-4-yl)oxy)-7-((trifluoromethyl)sulfonyl)-2,3-dihydro-1H-inden-1-ol] reads 6.00; that for `N#Cc1cc(F)cc(Oc2ccc(S(=N)(=O)C(F)(F)F)c3c2CCC3O)c1` (stereo not drawn) [Compound 258, 3-Fluoro-5-((1-hydroxy-7-(S-(trifluoromethyl)sulfonimidoyl)-2,3-dihydro-1H-inden-4-yl)oxy)benzonitrile], 6.39.
The compound `CS(=O)(=O)c1ccc(Oc2cncc(C#N)c2)c2c1[C@H](O)[C@H](F)C2` [Compound 313, 5-(((1S,2R)-2-fluoro-1-hydroxy-7-(methylsulfonyl)-2,3-dihydro-1H-inden-4-yl)oxy)nicotinonitrile] had a pIC50 of 5.74. Compared with the last compound, the pIC50 is 0.65 log units lower.
The result for `Cc1c(Oc2cc(F)cc(C#N)c2)ccc(S(=O)(=O)C(F)(F)F)c1/C=C/c1nnco1` [Compound 150, 3-Fluoro-5-[2-methyl-3-[(E)-2-(1,3,4-oxadiazol-2-yl)vinyl]-4-(trifluoromethylsulfonyl)phenoxy]benzonitrile] reads 5.89; that for `N#Cc1cccc(Oc2ccc(S(=O)(=O)C(F)F)c(CO)c2Br)c1` [Compound 81, 3-(2-Bromo-4-((difluoromethyl)sulfonyl)-3-(hydroxymethyl)phenoxy)benzonitrile], 6.54; that for `O=S(=O)(c1ccc(Oc2ccc(F)c(F)c2)c2c1C(O)CC2)C(F)(F)F` (stereo not shown) [Compound 214, 4-(3,4-Difluorophenoxy)-7-((trifluoromethyl)sulfonyl)-2,3-dihydro-1H-inden-1-ol], 6.64.
For `O=Cc1c(S(=O)(=O)C(F)(F)F)ccc(Oc2cc(F)cc(Cl)c2)c1Br` [Compound 101, 2-Bromo-3-(3-chloro-5-fluorophenoxy)-6-((trifluoromethyl)sulfonyl)benzaldehyde] the value was 7.59; for `N#Cc1cc(F)cc(Oc2ccc(Br)c3c2C(F)(F)C(F)(F)C3)c1` [Compound 248, 3-((7-Bromo-2,2,3,3-tetrafluoro-2,3-dihydro-1H-inden-4-yl)oxy)-5-fluorobenzonitrile], 4.77; for `N#Cc1c(S(=O)(=O)C(F)(F)F)ccc(Oc2cc(F)cc(Cl)c2)c1Cl` [Compound 111, 2-Chloro-3-(3-chloro-5-fluorophenoxy)-6-((trifluoromethyl)sulfonyl)benzonitrile], 7.82.
For `N#Cc1cc(F)cc(Oc2ccc(S(=O)(=O)C(F)F)cc2Br)c1` [Compound 132, 3-(2-Bromo-4-((difluoromethyl)sulfonyl)phenoxy)-5-fluorobenzonitrile] the value was 6.51.
With `O=S(=O)(c1ccc(Oc2ccc3[nH]ncc3c2)c2c1C(O)C(F)(F)C2)C(F)(F)F` (stereo not shown) [Compound 238, 4-((1H-Indazol-5-yl)oxy)-2,2-difluoro-7-((trifluoromethyl)sulfonyl)-2,3-dihydro-1H-inden-1-ol], the pIC50 is 5.31. This pIC50 is 1.20 log units lower than that of the compound before.
The result for `O=C1c2c(S(=O)(=O)C(F)F)ccc(Oc3ccc(F)c(F)c3)c2CC1(F)F` [Compound 195, 7-((Difluoromethyl)sulfonyl)-4-(3,4-difluorophenoxy)-2,2-difluoro-2,3-dihydro-1H-inden-1-one] reads 6.96.
The result for `N#Cc1cc(F)cc(Oc2ccc(S(=N)(=O)CF)c3c2CC(F)(F)[C@H]3O)c1` (single isomer, unassigned) [Example 274] reads 7.03; that for `O=Cc1cc(S(=O)(=O)C(F)(F)F)ccc1Oc1cc(F)cc(Cl)c1` [Compound 123, 2-(3-Chloro-5-fluorophenoxy)-5-((trifluoromethyl)sulfonyl)benzaldehyde], 7.49.
The result for `O=S(=O)(c1ccc(Oc2cc(F)cc(F)c2)c2c1[C@H](O)CC2)C(F)(F)F` [Example 55, (R)-4-(3,5-Difluorophenoxy)-7-((trifluoromethyl)sulfonyl)-2,3-dihydro-1H-inden-1-ol] reads above 8.30.
On to `CS(=O)(=O)c1ccc(Oc2cncc(Cl)c2)c2c1[C@H](O)C(F)(F)[C@@H]2F` [Compound 331, (1S,3R)-4-((5-chloropyridin-3-yl)oxy)-2,2,3-trifluoro-7-(methylsulfonyl)-2,3-dihydro-1H-inden-1-ol], for which the pIC50 was 8.15.

The values above are taken from patent US9896418B2, “Aryl ethers and uses thereof” (Peloton Therapeutics, Inc., priority 2013, dated 2018).
